Data published in ChEMBL document CHEMBL5376005, “Gut Metabolite Indoxyl Sulfate Has Selective Deleterious and Anticancer Effect on Colon Cancer Cells” (J Med Chem, 2023).
Counter-ions that a name gives are not always drawn. The source made the active and inactive calls. No cut-off for these calls is given here.

Key:
[1] = Toxicity in wild type BALB/c mouse assessed as inflammatory symptoms by measuring change in TNFalpha level at 100 mM, REC measured for 0 to 3 months by ELISA; settings: in vivo, other, 100000 µM, time 0-3 months
[2] = system: HT-29; assay: Induction of morphological changes in human HT-29 cells assessed as detachment from substrate at 1.25 to 10 mM incubated for 24 to 72 hrs by bright field microscopy analysis; type: functional, cell-based; settings: dose 1.25-10 mM, time 24-72 hrs
[3] = system: HCT-116; assay: Cytotoxicity against human HCT-116 cells assessed as cell viability at 10 mM measured after 48 hrs by MTT assay (reference value: 100%); type: functional; settings: HCT-116, 48 h, read-out: Activity
[4] = system: HCT-116; assay: Cytotoxicity against human HCT-116 cells assessed as reduction in colony formation pretreated for 48 hrs and further incubated for 10 days with media replacement for every alternate day; type: functional, cell-based; settings: dose 1.25-10 mM
[5] = system: HCT-116; assay: Cytotoxicity against human HCT-116 cells assessed as cell viability at 10 mM measured after 72 hrs by CellTiter-Glo luminescent cell viability assay (reference value: 100%); type: functional; settings: HCT-116, 72 h, read-out: Activity
[6] = system: HT-29; assay: Induction of morphological changes in human HT-29 cells assessed as loss of adhesion with free floating in medium at 10 mM incubated for 24 to 72 hrs by bright field microscopy analysis; type: functional, cell-based; settings: time 24-72 hrs
[7] = system: HCT-116; assay: Induction of morphological changes in human HCT-116 cells assessed as loss of adhesion with free floating in medium at 10 mM incubated for 24 to 72 hrs by bright field microscopy analysis; type: functional, cell-based; settings: time 24-72 hrs
[8] = system: HCT-116; assay: Induction of cell cycle arrest in human HCT-116 cells assessed as increase in proportion of cells at G2/M phase incubated for 48 hrs by RNase A/Triton X-100/PI staining based flow cytometry analysis; type: functional; settings: dose 1.25-10 mM
[9] = Toxicity in wild type BALB/c mouse assessed as histological change in rectum at 100 mM, REC measured after 12 weeks by H and E staining based light microscopic analysis; settings: in vivo, other, 2016 h, 100000 µM
[10] = system: HCT-116; assay: Induction of DNA damage in human HCT-116 cells by comet assay; type: functional, cell-based
[11] = system: HT-29; assay: Cytotoxicity against human HT-29 cells assessed as reduction in cell viability at 0.01 to 10 mM by CellTiter-Glo luminescent cell viability assay; type: functional, cell-based; settings: dose 0.01-10 mM, time 48-72 hrs, TDE = time-dependent effect
[12] = Toxicity in wild type BALB/c mouse assessed as histological change in colon at 100 mM, REC measured after 12 weeks by H and E staining based light microscopic analysis; type: tissue-based; settings: in vivo, other, 2016 h, 100000 µM
[13] = system: Cell membrane; assay: Induction of membrane integrity loss in human HT-29 cells assessed as LDH release in supernatant at 10 mM incubated for 48 hrs by absorbance based assay relative to control; type: subcellular
[14] = system: HCT-116; assay: Induction of ROS production in human HCT-116 cells incubated for 48 hrs by DHE staining based analysis; type: functional, cell-based
[15] = system: Cell membrane; assay: Induction of membrane integrity loss in human HT-29 cells assessed as LDH release in supernatant at 5 mM incubated for 48 hrs by absorbance based assay relative to control; type: subcellular
[16] = system: HT-29; assay: Induction of cell cycle arrest in human HT-29 cells assessed as increase in proportion of cells at G2/M phase incubated for 48 hrs by RNase A/Triton X-100/PI staining based flow cytometry analysis; type: functional; settings: dose 1.25-10 mM
[17] = system: HCT-116; assay: Cytotoxicity against human HCT-116 cells assessed as reduction in cell viability measured after 48 to 72 hrs by CellTiter-Glo luminescent cell viability assay; type: functional, cell-based; settings: dose 0.01-10 mM, time 48-72 hrs
[18] = system: HCT-116; assay: Induction of apoptosis in human HCT-116 cells assessed as increase in apoptotic cells at 5 mM incubated for 48 hrs by annexin V-FITC/PI staining based flow cytometry analysis (reference value: 3%); type: functional
[19] = Toxicity in wild type BALB/c mouse assessed as change in spleen length at 100 mM, REC measured after 12 weeks; settings: in vivo, other, 2016 h, 100000 µM
[20] = system: Cell membrane; assay: Induction of membrane integrity loss in human HT-29 cells assessed as increase in LDH release in supernatant incubated for 48 hrs by absorbance based assay; type: subcellular; settings: dose 1.25-10 mM
[21] = Toxicity in wild type BALB/c mouse assessed as change in intestinal length at 100 mM, ip measured after 12 weeks; type: organism-based, Intestine; settings: in vivo, 2016 h, 100000 µM
[22] = Toxicity in wild type BALB/c mouse assessed as reduction in body weight at 100 mM, ip measured after 12 weeks; type: organism-based; settings: in vivo, 2016 h, 100000 µM
[23] = Toxicity in wild type BALB/c mouse assessed as histological change in rectum at 100 mM, ip measured after 12 weeks by H and E staining based light microscopic analysis; type: organism-based; settings: in vivo, 2016 h, 100000 µM
[24] = system: Cell membrane; assay: Induction of membrane integrity loss in human HCT-116 cells assessed as increase in LDH release in supernatant incubated for 48 hrs by absorbance based assay; type: subcellular; settings: dose 1.25-10 mM
[25] = system: HCT-116; assay: Cytotoxicity against human HCT-116 cells assessed as cell viability at 10 mM measured after 72 hrs by MTT assay (reference value: 100%); type: functional; settings: HCT-116, 72 h, read-out: Activity
[26] = system: HT-29; assay: Induction of cell cycle arrest in human HT-29 cells assessed as increase in proportion of cells at G2/M phase at 5 mM incubated for 48 hrs by RNase A/Triton X-100/PI staining based flow cytometry analysis relative to control; type: functional
[27] = Toxicity in wild type BALB/c mouse assessed as inflammatory symptoms by measuring change in IL-1beta level at 100 mM, REC measured for 0 to 3 months by ELISA; settings: in vivo, other, 100000 µM, time 0-3 months
[28] = Toxicity in wild type BALB/c mouse assessed as inflammatory symptoms by measuring change in fecal consistency at 100 mM, REC measured after 12 weeks; settings: in vivo, other, 2016 h, 100000 µM
[29] = system: HT-29; assay: Induction of cell cycle arrest in human HT-29 cells assessed as increase in proportion of cells at G2/M phase at 10 mM incubated for 48 hrs by RNase A/Triton X-100/PI staining based flow cytometry analysis relative to control; type: functional
[30] = system: HT-29; assay: Cytotoxicity against human HT-29 cells assessed as cell viability at 10 mM measured after 72 hrs by MTT assay (reference value: 100%); type: functional; settings: HT-29, 72 h, read-out: Activity
[31] = system: HT-29; assay: Induction of morphological changes in human HT-29 cells assessed as formation of intracellular vesicles at 1.25 to 10 mM incubated for 24 to 72 hrs by bright field microscopy analysis; type: functional, cell-based; settings: dose 1.25-10 mM, time 24-72 hrs
[32] = Toxicity in wild type BALB/c mouse assessed as histological change in colon at 100 mM, ip measured after 12 weeks by H and E staining based light microscopic analysis; type: organism-based; settings: in vivo, 2016 h, 100000 µM
[33] = system: HT-29; assay: Induction of ROS production in human HT-29 cells incubated for 48 hrs by DHE staining based analysis; type: functional, cell-based

Activity [13]: 85%
Activity [15]: 82%
Activity [20]: Dose-Dependent Effect
Activity [24]: Dose-Dependent Effect
SMILES: O=S(=O)(O)Oc1c[nH]c2ccccc12 [INDOXYL SULFATE]
Activity [1]: Non-Toxic
Activity [2]: Active
viability at 10000 µM [3]: 7%
Activity [4]: Dose-Dependent Effect
viability at 10000 µM [5]: 3%
Activity [6]: Active
Activity [7]: Active
Activity [8]: Dose-Dependent Effect
Activity [9]: Non-Toxic
Activity [10]: inactive
Activity [11]: Tde
Activity [12]: Non-Toxic
Activity [14]: inactive
Activity [16]: Dose-Dependent Effect
Activity [17]: Dose-Dependent Effect
Activity [18]: 9%
Activity [19]: Non-Toxic
Activity [21]: Non-Toxic
Activity [22]: Non-Toxic
Activity [23]: Non-Toxic
viability at 10000 µM [25]: 4%
Activity [26]: 14.2%
Activity [27]: Non-Toxic
Activity [28]: Non-Toxic
Activity [29]: 17.3%
viability at 10000 µM [30]: 17%
Activity [31]: Active
Activity [32]: Non-Toxic
Activity [33]: inactive
